Results from patent US8173771B2, “Humanin receptor or humanin-like polypeptide receptor” (Keio Univeristy, priority 2005, dated 2012).
Peptide text beside a SMILES is read from it.

What was measured:
[1] = biological target: T1, human WSX-1, human CNTF receptor and human gp130 overexpressed in F11 cells (Homo sapiens, UniProt Q6UWB1); assay: Immunofluorescence-based HN binding assay (1) after ectopic overexpression of receptor genes in F11 cells; conditions: large amount (10 μM) of non-labeled peptide
T1 construct: His; V5 (C); expressed in transfected cells; host or cells: F11 cells
T1 sequence (Q6UWB1 33-636): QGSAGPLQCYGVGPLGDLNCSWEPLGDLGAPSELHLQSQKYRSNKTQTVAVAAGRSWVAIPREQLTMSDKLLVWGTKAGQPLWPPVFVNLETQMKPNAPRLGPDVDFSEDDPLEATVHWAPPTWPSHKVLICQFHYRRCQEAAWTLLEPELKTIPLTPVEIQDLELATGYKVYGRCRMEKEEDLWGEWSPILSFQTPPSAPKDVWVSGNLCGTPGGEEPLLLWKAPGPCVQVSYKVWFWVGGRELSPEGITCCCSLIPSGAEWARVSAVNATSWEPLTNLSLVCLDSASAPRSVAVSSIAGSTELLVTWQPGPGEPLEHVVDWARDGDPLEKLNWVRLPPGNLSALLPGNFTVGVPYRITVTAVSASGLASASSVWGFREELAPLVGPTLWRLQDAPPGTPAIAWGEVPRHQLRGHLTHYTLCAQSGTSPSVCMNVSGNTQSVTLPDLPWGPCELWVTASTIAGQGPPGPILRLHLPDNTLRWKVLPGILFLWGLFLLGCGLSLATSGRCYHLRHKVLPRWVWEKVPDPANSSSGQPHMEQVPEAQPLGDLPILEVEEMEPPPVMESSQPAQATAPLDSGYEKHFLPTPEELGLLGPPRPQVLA
T1 sequence (P40189 23-918 partner): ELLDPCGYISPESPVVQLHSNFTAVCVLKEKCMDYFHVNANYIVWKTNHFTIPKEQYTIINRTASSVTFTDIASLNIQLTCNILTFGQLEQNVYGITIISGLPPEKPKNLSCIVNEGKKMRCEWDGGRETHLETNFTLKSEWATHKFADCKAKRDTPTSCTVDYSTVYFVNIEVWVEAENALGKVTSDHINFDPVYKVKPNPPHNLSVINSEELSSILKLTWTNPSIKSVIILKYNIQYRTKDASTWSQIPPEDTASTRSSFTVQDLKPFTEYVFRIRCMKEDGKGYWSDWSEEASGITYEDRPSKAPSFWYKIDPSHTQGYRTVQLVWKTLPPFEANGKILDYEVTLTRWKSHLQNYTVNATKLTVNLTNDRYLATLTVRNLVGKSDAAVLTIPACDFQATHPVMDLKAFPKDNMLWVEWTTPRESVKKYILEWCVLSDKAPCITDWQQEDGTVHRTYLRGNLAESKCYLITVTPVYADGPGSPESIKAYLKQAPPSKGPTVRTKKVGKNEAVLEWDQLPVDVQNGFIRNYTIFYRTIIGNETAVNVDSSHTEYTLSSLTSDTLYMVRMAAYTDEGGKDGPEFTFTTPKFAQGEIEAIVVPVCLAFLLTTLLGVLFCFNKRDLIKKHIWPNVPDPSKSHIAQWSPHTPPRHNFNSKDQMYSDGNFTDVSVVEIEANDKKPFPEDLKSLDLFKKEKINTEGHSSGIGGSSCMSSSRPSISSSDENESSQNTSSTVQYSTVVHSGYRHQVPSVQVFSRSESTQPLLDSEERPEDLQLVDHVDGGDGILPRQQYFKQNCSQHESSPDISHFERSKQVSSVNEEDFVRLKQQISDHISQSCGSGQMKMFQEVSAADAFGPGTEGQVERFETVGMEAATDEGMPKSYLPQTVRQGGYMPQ
Procedure: A) F11 cells were transfected with 0.5 μg of the pEF/BOS vector, pEF-mycHis CREME9, pEF-mycHishuman WSX-1, or pEF-V5-human CNTF-R in association with 0.5 μg of pCAG-human gp130, or transfected with 0.5 μg of pEF-mycHis human WSX-1 and pEF-V5-human CNTF-R and pCAG-human gp130. To keep the total amounts of transfected vectors to be 1.5 μg, an appropriate amount of the pEFBOS vector was added. The graphs show the results of a binding amount of the biotin-labeled HN to each transfected cell by the detection of immunofluorescence reaction. The protein expression by immunoblot analysis is shown below in photos.
B) F11 cells were transfected with 0.5 μg of pEF-myc His human CREME9 or pEF-mycHis human WSX-1 in association with 0.5 μg of pCAG-human gp130. For competition, 10 μM of non-labeled (cold) HNG or HNA was added for some experiments. Fluorescence signals were detected with a laser-scanning, confocal microscope LSM (Carl Zeiss, Germany) (right panels).
F11 cells (7×10^4/well in 6-well plates) were replated into 96-well plates (7×10^3 cells/well) at 24 hrs after transfection with indicated amounts of the plasmids encoding mycHis-WSX or V5-CNTF-R, and with PCAG-human gp130 if required. […] Immunofluorescence intensity was measured (excitation=485 nm, emission=535 nm) with a spectrofluorometer (Wallac1420 ARVOsx Multi Label Counter). […]

[2] = system: neuronal cell death by AD-related insults; conditions: cited from earlier work

effect of unlabeled peptide on binding of HN to cells expressing WSX-1 and gp130 [1]	Molecule	potency relative to HN [2] [fold]	HN activity of the mutant ([2]; negative control)
nullified	CC[C@H](C)[C@H](NC(=O)[C@H](CCC(=O)O)NC(=O)CNC(=O)[C@@H](NC(=O)[C@H](CC(C)C)NC(=O)[C@H](CC(C)C)NC(=O)[C@H](CC(C)C)NC(=O)[C@H](CC(C)C)NC(=O)[C@H](CS)NC(=O)[C@H](CO)NC(=O)[C@H](Cc1ccccc1)NC(=O)CNC(=O)[C@H](CCCNC(=N)N)NC(=O)[C@@H]1CCCN1C(=O)[C@H](C)NC(=O)[C@@H](N)CCSC)[C@@H](C)O)C(=O)N[C@@H](CC(=O)O)C(=O)N[C@@H](CC(C)C)C(=O)N1CCC[C@H]1C(=O)N[C@H](C(=O)N[C@@H](CCCCN)C(=O)N[C@@H](CCCNC(=N)N)C(=O)N[C@@H](CCCNC(=N)N)C(=O)N[C@@H](C)C(=O)O)C(C)C [HNG, S14 G-Humanin] (H-MAPRGFSCLLLLTGEIDLPVKRRA-OH; N-terminus and C-terminus assumed)	1000	
not	C8A-Humanin (MAPRGFSALLLLTSEIDLPVKRRA) [HNA]		null activity
